{"source": "patent US10736933B2", "about": "“Peptide-induced NK cell activation” (priority 2015, dated 2020)", "format_in_all_cases": "cell-based", "key": {"[1]": {"tested_on": "KIR2DS2-positive NK cells", "assay": "CD107a degranulation of NK cells from KIR2DS2-positive donors cultured with peptide-loaded L721.174 cells", "experimental": "A. cells were incubated in the presence or absence of peptides, and then cultured with NK cells from either a KIR2DS2-positive or KIR2DS2-negative donor. The level of CD107a (LAMP) expression was measured on NK cells positive for the CH-L antibody. This antibody binds to KIR2DS2, KIR2DL2 and KIR2DL3. B. Summary data from 5 KIR2DS2-positive and 6 KIR2DS2 • negative donors tested as per panel A of FIG. 2. To compare the different donors the data are normalized to 100% for the no peptide condition.\nWith reference to FIG. 2A, 3×10^5 L721.174 cells were incubated at 26° C. overnight in the presence or absence of peptides, and then cultured for four hours with NK cells from either a KIR2DS2-positive or KIR2DS2-negative donor. The level of CD107a (LAMP) expression was measured on NK cells positive for the CH-L antibody. This antibody binds to KIR2DS2, KIR2DL2 and KIR2DL3. […] With reference to FIG. 2B, summary data from 5 KIR2DS2-positive and 6 KIR2DS2 • negative donors were tested as per panel A of FIG. 2. To compare the different donors the data are normalized to 100% for the no peptide condition."}, "[2]": {"tested_on": "KIR2DS2-positive NK cell clones", "assay": "Cytotoxicity of NK cell clones against peptide-loaded L721.174 cells (Live/Dead stain)", "conditions": "KIR2DS2-positive clones 4, 6, 9 only (not KIR2DS2-negative clone 27); compared to no peptide or VAPWNSFAL", "experimental": "(§1) L721.174 cells were incubated in the presence or absence of the peptides VAPWNSFAL (SEQ ID NO: 12) and the LNPSVAATL (SEQ ID NO: 5). The cells were then labeled with the cell tracker orange dye, and then cultured with KIR2DS2-positive NK cell clones (clones 4,6,9) or a KIR2DS2-negative NK cell clone (clone 27). Cytotoxicity was then determined using Live/Dead® fixable far-red stain.\nas §1, with “With reference to FIG. 3, 3×10^5 L721.174” for “L721.174”, “incubated at 26° C. overnight” for “incubated”, “cultured for four hours” for “cultured”"}, "[3]": {"tested_on": "NK cell line transfected with KIR2DS2", "assay": "DAP12 phosphorylation after KIR2DS2 immunoprecipitation (Western blot)", "conditions": "L721.174 cells with peptide at a concentration of 2004, NK cell line with KIR2DS2 for 5 minutes", "experimental": "A. L721.174 cells were incubated with indicated peptides. The cells were then incubated with the NK cell line transfected with KIR2DS2. The cells were lysed and the KIR2DS2 was then immunoprecipitated from the mixture using the GL183 antibody coupled to protein-G beads. The immune precipitate was analysed by Western blotting using a phosphotyrosine antibody. The membrane was then stripped and reprobed with an antibody to DAP12 the molecule that transduces a positive signal from KIR2DS2. Shown are the regions on the blots at the level of DAP12 (12-15 kDa). B. L721.174 cells were incubated with indicated peptides. The cells were then incubated with the NK cell line transfected with KIR2DS2 or transfected with KIR2DL2. The cells were lysed in 1% NP-40 and then analysed by Western blotting using antibodies to pVav1 and then following stripping of the membrane to Vav1. Shown are Western blots around the 98 kDa region, and below them the corresponding densitometries for 3 independent experiments.\nWith reference to FIG. 6A, 1×10^6 L721.174 cells were incubated overnight at 26° C. with indicated peptides at a concentration of 2004. […] The immune precipitate was analysed by Western blotting using a phosphotyrosine antibody. […] The cells were lysed in 1% NP-40 and then analysed by Western blotting using antibodies to pVav1 and then following stripping of the membrane to Vav1. […]"}}}
{"sequence": "LNPSVAATL [peptide recognized by KIR2DS2-positive NK cells]", "values": [{"measurement": "level of CD107a (LAMP) degranulation", "setting": "[1]; KIR2DS2-positive donor, CH-L antibody positive NK cells, four hours, compared to no peptide", "result": "higher levels of degranulation"}, {"measurement": "level of CD107a (LAMP) degranulation", "setting": "[1]; KIR2DS2-positive donors, in combination with VAPWNSFAL, compared to the VAPWNSFAL peptide alone", "result": "higher levels of degranulation"}, {"measurement": "killing of L721.174 cell line", "setting": "[2]", "result": "killed the L721.174 cell line to greater extent"}, {"measurement": "phosphorylation of DAP12", "setting": "[3]", "result": "induces phosphorylation of DAP12"}]}
